Reference: patent US10184115B2, “Mutated cellobiose dehydrogenase with increased substrate specificity” (DIRECTSENS GMBH, priority 2012, dated 2019)

Target: T1, Corynascus thermophilus cellobiose dehydrogenase (CDH), recombinant wild type, SEQ ID NO: 7 (Thermothelomyces fergusii, UniProt E7D6B9)
T1 sequence (E7D6B9 24-787): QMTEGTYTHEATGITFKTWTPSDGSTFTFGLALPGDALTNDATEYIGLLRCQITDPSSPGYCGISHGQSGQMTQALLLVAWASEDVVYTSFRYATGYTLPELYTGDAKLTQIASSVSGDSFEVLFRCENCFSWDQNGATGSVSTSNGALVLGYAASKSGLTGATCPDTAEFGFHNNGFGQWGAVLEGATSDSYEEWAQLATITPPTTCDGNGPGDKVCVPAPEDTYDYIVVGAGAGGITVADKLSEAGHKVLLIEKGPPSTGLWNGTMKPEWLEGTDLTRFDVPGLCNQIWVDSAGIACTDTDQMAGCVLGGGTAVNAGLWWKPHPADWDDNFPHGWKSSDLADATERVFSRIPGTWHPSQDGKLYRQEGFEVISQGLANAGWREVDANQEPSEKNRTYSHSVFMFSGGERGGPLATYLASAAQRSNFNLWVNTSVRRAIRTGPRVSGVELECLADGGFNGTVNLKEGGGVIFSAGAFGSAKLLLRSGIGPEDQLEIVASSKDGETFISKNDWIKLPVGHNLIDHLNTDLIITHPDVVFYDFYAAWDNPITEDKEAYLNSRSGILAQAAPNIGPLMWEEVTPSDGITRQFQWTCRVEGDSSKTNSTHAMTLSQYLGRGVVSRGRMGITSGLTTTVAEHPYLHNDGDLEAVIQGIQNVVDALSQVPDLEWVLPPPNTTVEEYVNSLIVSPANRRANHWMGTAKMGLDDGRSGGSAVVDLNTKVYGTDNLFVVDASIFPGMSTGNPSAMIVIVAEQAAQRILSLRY
Test: Steady-state kinetics, DCIP assay: C. thermophilus CDH wt
Settings: apparent, pH 5.5, 30° C.
Method: Enzyme activity was assayed at 30° C. using either the DCIP (Karapetyan et al., 2005 Journal of Biotechnology 121: 34-48) or cytochrome c (Canevascini et al., 1991, European Journal of Biochemistry 198: 43-52) as electron acceptor. […] Stock solutions of carbohydrates used for kinetic measurements were prepared in the respective buffer and allowed to stand overnight for mutarotation, while stock solutions of electron acceptors were prepared in water and immediately used. The reaction stoichiometry is 1 for the two-electron acceptor DCIP (1 mole of DCIP reduced per mole of carbohydrate oxidized), but 2 for the one-electron acceptor cytochrome c. Kinetic constants were calculated by fitting the observed data to the Henri-Michaelis-Menten equation or to the adapted model for substrate inhibition using nonlinear least-squares regression and the program SigmaPlot (Systat Software, San Jose, Calif., USA). […]
Recombinant wild-type CDH as well as variants were produced in 1 L baffled flasks. […] Increase in activity was monitored using the DCIP and the cytochrome c enzyme assays. […]
The sample was loaded on a 20 mL PHE Sepharose FF column (HR26/20) equilibrated with 50 mM Na-acetate buffer pH 5.5 containing 20% ammonium sulfate. […] Fractions were tested for CDH activity and pooled according to the highest Reinheitszahl (RZ, calculated from the absorbance ratio 420 nm/280 nm). […]

Molecule `OC[C@H]1OC(O)[C@H](O)[C@@H](O)[C@@H]1O` (some centres unmarked) [Glucose, glucose] has a kcat of 4.09 s⁻¹ and a kcat/KM of 170 M⁻¹ s⁻¹.
